Patent US12575571B2, “1-amino-1-cyclopropanecarboxylic acid and methyl jasmonate mixtures and uses thereof” (Valent BioSciences LLC, priority 2022, dated 2026)

What was measured:
[1] = tested on: unripened apples, Ultima Gala variety; test: Apple coloration in Ultima Gala variety (percent red pixel area after foliar spray); format: in vivo; conditions: 34 hours post spray; for Fold Change From control: vs 0.05% Regulaid control
Description: (§1) To determine if the mixture provided unexpected results, the observed combined efficacy (“OCE”) was divided by the expected combined efficacy (“ECE”) wherein the ECE is calculated by the Abbott method: ECE=A+B−(AB/100), wherein ECE is the expected combined efficacy and in which A and B are the fold change from control given by the single active ingredients. If the ratio between the OCE of the mixture and the ECE of the mixture is greater than 1, then greater than expected interactions are present in the mixture. (Gisi, Synergistic Interaction of Fungicides in Mixtures, The American Phytopathological Society, 86:11, 1273-1279,1996).
(§2) 10 sets of unripened apples, Ultima Gala variety, harvested three weeks before the normal harvest date, were each foliar sprayed with either 1) 0.05% Regulaid® as a control, 2) 50 ppm methyl jasmonate, 3) 300 ppm methyl jasmonate, 4) 50 ppm ACC, 5) 300 ppm ACC or 6) a mixture of 50 ppm methyl jasmonate and 50 ppm ACC or 7) a mixture of 300 ppm methyl jasmonate and 300 ppm ACC. 34 hours post spray application percent red pixel area (shaded) was measured. Percent red pixel area is an indication of the coloration of the apple fruit.

[2] = tested on: unripened apples, Imperial Gala variety; test: Apple coloration in Imperial Gala variety (percent red pixel area after foliar spray); format: in vivo; conditions: 34 hours post spray; for Fold Change From control: vs 0.05% Regulaid control
Description: as §2, with “Imperial” for “Ultima”
as §1

[3] = 50 ppm (each active) foliar spray
[4] = 300 ppm (each active) foliar spray

Structure (SMILES): CC/C=C\CC1C(=O)CCC1CC(=O)OC (centres unmarked) [methyl jasmonate]
- Average % Red Pixel Area [1, 3]: 36.64%
- Fold Change From control ([1]; 50 ppm (each active)): 2.30
- Average % Red Pixel Area [1, 4]: 46.37%
- Fold Change From control ([1]; 300 ppm (each active)): 3.17
- Average % Red Pixel Area [2, 3]: 63.31%
- Fold Change From control ([2]; 50 ppm (each active)): 8.31
- Average % Red Pixel Area [2, 4]: 47.60%
- Fold Change From control ([2]; 300 ppm (each active)): 6.00
